Measurements taken from patent US4434175A, “Nonsteroidal compounds as anti-inflammatory and analgesic agents” (Merck & Co., Inc., priority 1982, dated 1984).

What was measured:
[1] = tested on: edema induced by carragenin in rat's right hind paw; assay: rat foot edema assay (carragenin-induced, C.F.E.); format: in vivo, rat (male, Sprague Dawley)
Experimental: The rat foot edema assay, by which anti-inflammatory activity is determined, is based on the ability of the compounds of Formula I to inhibit the edema induced by injection of an inflammatory (phlogistic) agent into the tissue of a rat's foot. Groups of six male rats (Sprague Dawley strain, 150±30 g each) are given orally the compounds to be tested one hour before 0.1 ml of 1% suspension of carragenin in methocel (0.5%) is injected into the plantar surface of the rat's right hind paw. Immediately and again three hours later, the foot volume is measured and recorded. The difference between the […] and final volumes is a measurement of the edema produced. For comparative purposes the activity of the compound to be tested is measured against that produced by the known anti-inflammatory agent, e.g. Zomepirac. The activity measured is also corrected by the swelling, if any, produced by the "control" rats which receive only the methocel solution.

gastric mucosa = assay: Gastric Hemorrhage Lesion Formation Assay (GHLF) / gastric irritation; format: in vivo, rat (Sprague-Dawley, male); settings: for Ave. No. of lesions per Animal / Animal with Lesion: oral, fasted, 4 h; for Animal with Lesion: animals with at least one lesion/group
Experimental: In other words, the novel compounds of the present invention are less toxic in terms of gastric irritation. The GHLF test is conducted according to the following procedure:
Rats (Sprague-Dawley, Males, 120-180 gm) were fasted overnight and dosed orally with drug suspended in 0.5% methylcellulose. The drug concentration was adjusted so that each animal received 1.0 ml/100 gm body weight. Four hours later the animals were killed by asphixiation in carbon dioxide, the stomachs removed, cut open and everted. The mucosal lining was washed and examined under 3X magnification. The lesions are indentified as perforations of the gastric mucosa many of which perforate right through the wall of the stomach.
The results are expressed in two ways, the average number of lesions per stomach, and the number of animals in the group showing at least one lesion.

[2] = Rattus norvegicus, oral, one hour before carragenin, foot volume 3 h later

Structure (SMILES)	inhibition in vivo at 3 mg/kg [1, 2] [%]	inhibition in vivo at 10 mg/kg [1, 2] [%]	Ave. No. of lesions per Animal (gastric mucosa; 10 mg/kg)	Animal with Lesion (gastric mucosa; 10 mg/kg)	Ave. No. of lesions per Animal (gastric mucosa; 30 mg/kg)	Animal with Lesion (gastric mucosa; 30 mg/kg)	Ave. No. of lesions per Animal (gastric mucosa; 90 mg/kg)	Animal with Lesion (gastric mucosa; 90 mg/kg)	inhibition in vivo at 30 mg/kg [1, 2] [%]	further results
C=C(Cl)COc1cc(CC(=O)O)n(C)c1C(=O)c1ccc(Cl)cc1 [4-ClC6 H5; drawing 13; CH3]	30									inhibition in vivo at 20 mg/kg [1, 2]: 32%
COc1cc(CC(=O)O)n(C)c1C(=O)c1ccc(C(F)(F)F)cc1 [4-CF3C6 H5; OCH3; CH3, 5-(p-trifluoromethylbenzoyl)-4-methoxy-1-methylpyrrole-2-acetic acid]	24	48	0	0/6	0	0/6	0	0/6		inhibition in vivo at 20 mg/kg [1, 2]: 57%; Ave. No. of lesions per Animal (gastric mucosa; 150 mg/kg): 1; Animal with Lesion (gastric mucosa; 150 mg/kg): 1/6
COc1cc(CC(=O)O)n(C)c1C(=O)c1ccc(Cl)cc1 [4-ClC6 H5; CH3 O; CH3, 5-(p-chlorobenzoyl)-4-methoxy-1-methylpyrrole-2-acetic acid]	48	51	0	0/5	0	0/5	2	3/5	70	inhibition in vivo at 20 mg/kg [1, 2]: 60%
Cc1cc(CC(=O)O)n(C)c1C(=O)c1cccn1C									26	
CSc1ccc(C(=O)c2c(C)cc(CC(=O)OCCNC(C)=O)n2C)n1C [Acetamidoethyl 1,4-dimethyl-5-(1-methyl-5-methylthiopyrrol-2-oyl)pyrrole-2-acetate]		13	0	0/6	0	0/6	0.5	2/6	21	activity in rat foot edema assay ([1]; footnote to edema table): also active; activity, footnote to GHLF table (gastric mucosa; footnote to GHLF table): also active
Cc1cc(CC(=O)O)n(C)c1C(=O)c1cccnc1 [drawing 19]	34	47							33	
COc1cc(CC(=O)O)n(C)c1C(=O)c1ccc(F)cc1F [2,4-F2C6 H5; OCH3; CH3, 5-(o-p-difluorobenzoyl)-4-methoxy-1-methylpyrrole-2-acetic acid]	29	35							38	
CCOc1cc(CC(=O)O)n(C)c1C(=O)c1ccc(Cl)cc1 [4-ClC6 H5; OC2 H5; CH3, 4-ethoxy-5-(p-chlorobenzoyl)-1-methylpyrrole-2-acetic acid]										inhibition in vivo at 20 mg/kg [1, 2]: 33%
COc1cc(CC(=O)O)n(C)c1C(=O)c1ccc(SC)cc1 [4-CH3 SC6 H5; CH3 O; CH3, 5-(p-methylthiobenzoyl)-4-methoxy-1-methylpyrrole-2-acetic acid]	45		0.5	3/6	0.8	2/6				inhibition in vivo at 15 mg/kg ([1]; Rattus norvegicus, 15 mg/kg, oral, one hour before carragenin, foot volume 3 h later): 64%
COc1cc(CC(=O)O)n(C)c1C(=O)c1ccc(C)cc1 [4-CH3C6 H5; OCH3; CH3, 5-(p-methylbenzoyl)-4-methoxy-1-methylpyrrole-2-acetic acid]			0	0/6	0	0/6	0	0/6		inhibition in vivo at 5 mg/kg ([1]; Rattus norvegicus, 5 mg/kg, oral, one hour before carragenin, foot volume 3 h later): 38%; inhibition in vivo at 20 mg/kg [1, 2]: 38%
Cc1cc(CC(=O)O)n(C)c1C(=O)c1ccccn1							0	0/6		
COc1cc(CC(=O)O)n(C)c1C(=O)c1ccc([S+](C)[O-])cc1 (stereo not shown) [4-CH3 SOC6 H5; CH3 O; CH3, 4-methoxy-5-(p-methylsulfinylbenzoyl)-1-methylpyrrole-2-acetic acid]		29							23	
Cc1cc(CC(=O)O)n(C)c1C(=O)c1ccc(Cl)n1C		30							41	
CSc1ccc(C(=O)c2c(C)cc(CC(=O)O)n2C)n1C [drawing 18]		34							45	
CSc1cc(C(=O)c2c(C)cc(CC(=O)O)n2C)n(C)c1		33							53	
Cc1cc(CC(=O)O)n(C)c1C(=O)c1ccc(Cl)cc1 [Zomepirac, reference compound]										Ave. No. of lesions per Animal (gastric mucosa; 3 mg/kg): 0.5; Animal with Lesion (gastric mucosa; 3 mg/kg): 4/6; Ave. No. of lesions per Animal (gastric mucosa; 6 mg/kg): 1.4; Animal with Lesion (gastric mucosa; 6 mg/kg): 3/6; Ave. No. of lesions per Animal (gastric mucosa; 9 mg/kg): 1.4; Animal with Lesion (gastric mucosa; 9 mg/kg): 6/6
Cc1cc(CC(=O)O)n(C)c1C(=O)c1cccnc1 [drawing 23]							0	0/6		
CSc1ccc(C(=O)c2c(C)cc(CC(=O)O)n2C)n1C [drawing 24]			0	0/6	0	0/6				Ave. No. of lesions per Animal (gastric mucosa; 60 mg/kg): 1.5; Animal with Lesion (gastric mucosa; 60 mg/kg): 4/6
COc1cc(CC(=O)O)n(C)c1C(=O)c1ccc(Cl)n1C	30	35							41	
